Values of other authors in article PMC12087591 (Drug Design, Development and Therapy, 2025).

System: COVID-19
Settings: unvaccinated COVID-19 patients

**Q.** Which “reduction of hospitalization risk” value does the source give for `CC(C)(C)[C@H](NC(=O)C(F)(F)F)C(=O)N1C[C@H]2[C@@H]([C@H]1C(=O)N[C@H](C#N)C[C@@H]1CCNC1=O)C2(C)C` [nirmatrelvir] here?
**A.** 89%
